43 molecules from patent publication US20200109126A1 (priority 2017, published 2020) can be followed below.

The target of one test is humanDOR (Homo sapiens, UniProt P41143). Briefly: Receptor binding with [3H]diprenorphine at human DOR.
For the next test, the target named is hKOR (Homo sapiens, UniProt P41145). Briefly: Receptor binding with [3H]diprenorphine at hKOR.
For a further test, the target named is hMOR (Homo sapiens, UniProt P35372). Briefly: Receptor binding with [3H]diprenorphine at hMOR.
Setting [1] is: PZM analogs, (n) = number of independent experiments, read-out: binding affinity Ki hDOR.
[2] abbreviates: PZM analogs, (n) = number of independent experiments, read-out: binding affinity Ki hKOR.
The mark [3] stands for this setting: PZM analogs, (n) = number of independent experiments, read-out: binding affinity Ki hMOR.
The mark [4] stands for this setting: ± SD (two experiments) or SEM, (n) experiments, read-out: humanDOR [3H]dyprenorphine Ki.
The mark [5] stands for this setting: ± SD (two experiments) or SEM, (n) experiments, read-out: hKOR [3H]dyprenorphine Ki.

Read-outs that look alike come from different tables or passages of the source.

Sequence of hKOR (P41145 whole entry): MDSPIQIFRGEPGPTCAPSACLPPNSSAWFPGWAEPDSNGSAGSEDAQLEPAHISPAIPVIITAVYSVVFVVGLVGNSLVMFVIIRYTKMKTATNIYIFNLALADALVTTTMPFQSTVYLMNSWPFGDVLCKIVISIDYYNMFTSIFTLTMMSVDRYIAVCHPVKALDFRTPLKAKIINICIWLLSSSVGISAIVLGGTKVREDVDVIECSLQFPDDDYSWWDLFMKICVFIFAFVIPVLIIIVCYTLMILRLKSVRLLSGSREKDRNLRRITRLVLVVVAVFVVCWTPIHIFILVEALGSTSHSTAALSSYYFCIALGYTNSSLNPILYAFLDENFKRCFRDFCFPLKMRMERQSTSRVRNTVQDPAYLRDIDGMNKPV
Sequence of hMOR (P35372 whole entry): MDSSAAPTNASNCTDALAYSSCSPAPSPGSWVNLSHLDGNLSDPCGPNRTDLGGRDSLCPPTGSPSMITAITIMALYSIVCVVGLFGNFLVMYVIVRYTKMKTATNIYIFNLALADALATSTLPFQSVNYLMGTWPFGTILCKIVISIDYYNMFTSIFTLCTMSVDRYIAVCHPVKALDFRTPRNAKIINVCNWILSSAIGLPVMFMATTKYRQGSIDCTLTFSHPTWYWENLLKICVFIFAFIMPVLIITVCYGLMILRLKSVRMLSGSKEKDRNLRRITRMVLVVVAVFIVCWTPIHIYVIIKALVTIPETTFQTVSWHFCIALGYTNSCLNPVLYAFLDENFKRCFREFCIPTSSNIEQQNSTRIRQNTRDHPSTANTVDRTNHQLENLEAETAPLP
Sequence of humanDOR (P41143 whole entry): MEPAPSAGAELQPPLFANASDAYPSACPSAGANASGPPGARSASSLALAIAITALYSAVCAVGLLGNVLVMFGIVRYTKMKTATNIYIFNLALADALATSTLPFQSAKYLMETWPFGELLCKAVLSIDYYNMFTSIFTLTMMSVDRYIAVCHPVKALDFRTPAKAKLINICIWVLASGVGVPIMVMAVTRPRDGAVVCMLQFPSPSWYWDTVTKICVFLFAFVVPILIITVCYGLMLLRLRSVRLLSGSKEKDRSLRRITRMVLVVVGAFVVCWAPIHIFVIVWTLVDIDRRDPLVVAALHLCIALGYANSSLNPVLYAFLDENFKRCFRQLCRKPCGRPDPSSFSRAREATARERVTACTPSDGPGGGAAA

As for `CN(C)[C@@H](CNC(=O)NCCc1ccsc1)Cc1ccccc1`, the Ki on humanDOR (setting [1]) came out at 25 µM; on hKOR (setting [2]), 8.1 µM; at hMOR (setting [3]) it was 4.2 µM.

For the molecule `CN(C)[C@H](CNC(=O)NCCc1ccsc1)Cc1ccccc1`, the Ki at humanDOR (setting [1]) is 4.5 µM; on hKOR (setting [2]), 3.1 µM; at hMOR (setting [3]), 0.35 µM.

Turning to `C[C@@H](Cc1ccsc1)NC(=O)NC[C@@H](Cc1ccccc1)N(C)C`, the Ki came to 11 µM at humanDOR (setting [1]) and 3.1 µM at hKOR (setting [2]).

For `C=CCN(C[C@H](Cc1ccccc1)N(C)C)C(=O)N[C@@H](C)Cc1ccsc1`, the Ki on humanDOR (setting [1]) was roughly 15 µM; on hKOR (setting [2]), 1.7 µM; at hMOR (setting [3]), 3.2 µM.

On to `C=CCN(C[C@H](Cc1ccccc1)N(C)C)C(=O)N[C@H](C)Cc1ccsc1`, for which the Ki on humanDOR (setting [1]) was roughly 15 µM; on hKOR (setting [2]) it was 3.1 µM; at hMOR (setting [3]) it was 4.1 µM.

For `CN(C)[C@@H](CNC(=O)NC(C)(C)Cc1ccsc1)Cc1ccccc1`, the Ki on humanDOR (setting [1]) is 2.4 µM; on hKOR (setting [2]) it was 0.96 µM; at hMOR (setting [3]), 0.18 µM.

For the molecule `CN(C)[C@H](CNC(=O)NC(C)(C)Cc1ccsc1)Cc1ccccc1`, the Ki is 3 µM at humanDOR (setting [1]), 0.79 µM on hKOR (setting [2]) and 0.21 µM on hMOR (setting [3]).

As for `CN(C)[C@@H](CNC(=O)NC(C)(C)Cc1ccccc1)Cc1ccccc1`, the Ki at humanDOR (setting [1]) was found to be 1 µM; on hKOR (setting [2]) it was 1.1 µM; on hMOR (setting [3]), 0.64 µM.

Consider `CN(C)[C@H](CNC(=O)NC(C)(C)Cc1ccccc1)Cc1ccccc1`, for which the results for the Ki at humanDOR (setting [1]), on hKOR (setting [2]) and on hMOR (setting [3]) were 3.3 µM, 0.93 µM and 0.49 µM, respectively.

With `CN(C)[C@@H](CNC(=O)NCCc1ccsc1)Cc1ccc(O)cc1`, the Ki on humanDOR (setting [1]) was 11 µM; on hKOR (setting [2]), 5.2 µM; on hMOR (setting [3]) it was 1.5 µM.

With `CN(C)[C@H](CNC(=O)OCCc1ccsc1)Cc1ccc(O)cc1`, the Ki on humanDOR (setting [1]) turned out to be 0.57 µM; at hKOR (setting [2]), 0.19 µM; on hMOR (setting [3]), 0.17 µM.

On to `CN[C@H](CNC(=O)NCCc1ccccc1)Cc1ccc(O)cc1`, for which the Ki on hMOR (setting [3]) amounted to 0.29 µM.

On to `C[C@H](Cc1ccsc1)NC(=O)NC[C@@H](Cc1ccc(O)cc1)N(C)C`, for which the Ki on humanDOR (setting [1]) stood at 4.1 µM; on hKOR (setting [2]), 3.1 µM.

Turning to `C[C@@H](Cc1ccsc1)NC(=O)NC[C@@H](Cc1ccc(O)cc1)N(C)C`, the Ki on humanDOR (setting [1]) was 4.8 µM; at hKOR (setting [2]), 2.3 µM.

Regarding `CN(C)[C@H](CNC(=O)CCCc1ccccc1)Cc1ccc(O)cc1`, the Ki is 0.37 µM at humanDOR (setting [1]), 0.1 µM at hKOR (setting [2]) and 0.072 µM on hMOR (setting [3]).

Turning to `C[C@H](Cc1csc2ccccc12)NC(=O)NC[C@H](Cc1ccc(O)cc1)N(C)C`, the Ki on humanDOR (setting [1]) stood at 0.083 µM; on hKOR (setting [2]), 0.067 µM; at hMOR (setting [3]), 0.043 µM.

Consider `CN(C)[C@@H](CNC(=O)NC(C)(C)Cc1ccccc1)Cc1ccc(O)cc1`, for which the Ki is 3.6 µM on humanDOR (setting [1]), 1.5 µM on hKOR (setting [2]) and 0.46 µM on hMOR (setting [3]).

Consider `C[C@@H](Cc1ccsc1)NC(=O)NC[C@H](Cc1ccnc(O)c1)N(C)C`, for which the Ki at humanDOR (setting [1]) was determined as 4.1 µM; on hKOR (setting [2]), 1.2 µM; at hMOR (setting [3]) it was 0.21 µM.

Take `Cc1cc(O)cc(C)c1C[C@@H](CNC(=O)NCCc1ccsc1)N(C)C`: the inhibition constant (Ki) on humanDOR (setting [1]) worked out at 0.051 µM; at hKOR (setting [2]), 0.027 µM; on hMOR (setting [3]), 0.0062 µM.

Take `CN(C)[C@H](CNC(=O)NCCc1cn(Cc2ccccc2)nn1)Cc1ccc(O)cc1`: the figures for the Ki at humanDOR (setting [1]), on hKOR and at hMOR were 0.38 µM, 1.4 µM and 0.2 µM, respectively.

`CN(CCCl)C(CNC(=O)NCCc1ccccc1)Cc1ccc(O)cc1` (stereo not shown): at humanDOR (binding affinity Ki hDOR, PZM analogs, (n) = number of independent experiments), the Ki is 0.36 µM.

For the molecule `CN(CCO)C(CNC(=O)NCCc1ccccc1)Cc1ccc(O)cc1` (stereo not shown), the Ki is 1.8 µM on humanDOR, 1.3 µM on hKOR and 0.97 µM on hMOR.

Turning to `CN[C@H](CNC(=O)N[C@@H](C)Cc1ccsc1)Cc1ccc(O)cc1`, the Ki turned out to be 0.7 µM at humanDOR (setting [1]) and 0.24 µM on hKOR (setting [2]).

With `C[C@@H](Cc1ccsc1)NC(=O)NCC(Cc1ccc(O)cc1)N(C)Cc1ccccc1` (stereo partly shown), the Ki at humanDOR (setting [1]) was 0.72 µM; at hKOR (setting [2]) it was 0.21 µM; on hMOR (setting [3]) it was 0.22 µM.

As for `COc1ccccc1CCNC(=O)NCC(Cc1ccc(O)cc1)N(C)C` (stereo not shown), the Ki on humanDOR (setting [1]) amounted to 0.15 µM; at hKOR (setting [2]) it was 0.14 µM; on hMOR (setting [3]), 0.022 µM.

With `COc1cccc(CCNC(=O)NCC(Cc2ccc(O)cc2)N(C)C)c1` (stereo not shown), the Ki came to 0.22 µM at humanDOR (setting [1]), 1.3 µM at hKOR (setting [2]) and 0.11 µM on hMOR (setting [3]).

Turning to `COc1ccc(CCNC(=O)NCC(Cc2ccc(O)cc2)N(C)C)cc1` (stereo not shown), the Ki is 10 µM on humanDOR (setting [1]), 1.5 µM at hKOR (setting [2]) and 0.33 µM on hMOR (setting [3]).

Turning to `CN(C)C(CNC(=O)NCCc1ccccc1F)Cc1ccc(O)cc1` (stereo not shown), the Ki on humanDOR (setting [1]) was determined as 0.053 µM; at hKOR (setting [2]), 0.44 µM; at hMOR (setting [3]) it was 0.043 µM.

With `CN(C)C(CNC(=O)NCCc1cccc(F)c1)Cc1ccc(O)cc1` (stereo not shown), the Ki on humanDOR (setting [1]) was 0.25 µM; on hKOR (setting [2]), 0.17 µM; on hMOR (setting [3]), 0.036 µM.

As for `CN(C)C(CNC(=O)NCCc1ccc(F)cc1)Cc1ccc(O)cc1` (stereo not shown), the Ki is 0.25 µM at humanDOR (setting [1]), 0.19 µM at hKOR (setting [2]) and 0.027 µM at hMOR (setting [3]).

Consider `O=C(NCCc1ccccc1)NC[C@H](Cc1ccc(O)cc1)N1CCCC1`, for which the Ki came out at 1.5 µM at humanDOR (setting [1]), 0.77 µM at hKOR (setting [2]) and 0.66 µM at hMOR (setting [3]).

With `CN(C)[C@H](CNC(=O)NCCN1C(=O)C2C3C=CC(O3)C2C1=O)Cc1ccc(O)cc1` (stereo partly shown), the Ki came to 36 µM on humanDOR, 8.2 µM on hKOR and 2.3 µM at hMOR.

With `CC(Cc1csc2ccccc12)NC(=O)NC[C@H](Cc1ccc(O)cc1)N(C)C` (mixture of isomers), the Ki came out at 0.019 µM on hKOR (setting [2]) and 0.014 µM at hMOR (setting [3]).

Consider `CC(Cc1ccsc1)NC(=O)NCC(Cc1ccc(O)cc1)N(C)C` (single isomer, unassigned) [BD 122DR], for which the Ki at humanDOR (setting [4]) was determined as 4.1 µM; on hKOR (setting [5]), 3.1 µM.

As to `CC(Cc1ccsc1)NC(=O)NCC(Cc1ccc(O)cc1)N(C)C` (single isomer, unassigned) [BD 122DS], the Ki is 4.8 µM at humanDOR (setting [4]) and 2.3 µM on hKOR (setting [5]).

As for `CC(Cc1ccsc1)NC(=O)NCC(Cc1ccccc1)N(C)C` (single isomer, unassigned) [BD 127DR], the Ki came out at 12 µM on humanDOR (setting [4]) and 5 µM on hKOR (setting [5]).

For `CC(Cc1ccsc1)NC(=O)NCC(Cc1ccccc1)N(C)C` (single isomer, unassigned) [BD 127DS], the Ki was 11 µM at humanDOR (setting [4]) and 3.1 µM on hKOR (setting [5]).

As for `CC(Cc1ccsc1)NC(=O)NCC(Cc1ccccc1)N(C)C` (single isomer, unassigned) [BD 127LR], the Ki was 1.8 µM on humanDOR (setting [4]) and 1.3 µM on hKOR (setting [5]).

In the case of `C[C@@H](Cc1ccsc1)NC(=O)NC[C@H](Cc1ccccc1)N(C)C` [BD 127LS], the Ki came to 2.8 µM at humanDOR (setting [4]) and 1 µM on hKOR (setting [5]).

Take `C[C@H](Cc1ccsc1)NC(=O)NC[C@@H](Cc1ccccc1)N(C)C` [drawing 489]: the Ki at humanDOR (setting [1]) came out at 12 µM; at hKOR (setting [2]), 5 µM.

With `C[C@@H](Cc1ccsc1)NC(=O)NC[C@H](Cc1ccccc1)N(C)C` [drawing 492], the Ki was determined as 2.8 µM at humanDOR (setting [1]) and 1 µM on hKOR (setting [2]).

As for `CN(CC1CC1)[C@H](CNC(=O)NCCc1ccccc1)Cc1ccc(O)cc1` [drawing 507], the Ki at hMOR (setting [3]) amounted to 0.76 µM.

As for `C[C@@H](Cc1ccsc1)NC(=O)NC[C@H](Cc1ccc(O)cc1)N(C)C` [drawing 512], the Ki on humanDOR (setting [1]) amounted to 1 µM; on hKOR (setting [2]), 0.018 µM.

In general, Ki refers to the equilibrium dissociation constant of an inhibitor or competing ligand from its target.
